Experimental data as given in patent US6376426B1, “Herbicidal 3-(heterocycl-1-yl)-uracils” (BASF Aktiengesellschaft, priority 1999, dated 2002).

Columns and labels:
Format in all cases: in vivo
[1] = test system: Triticum aestivum; assay: Pre-emergence herbicidal test, TRZAW; parameters: key: A rating 0 indicates growth as untreated control; a rating 9 indicates death; conditions: 21 days after spraying
Description: (§1) To evaluate their herbicidal activity, compounds according to the invention are tested using a representative range of plants:
(§2) The pre-emergence tests involve spraying a liquid formulation of the compound onto the soil in which the seeds of the plant species mentioned above has recently been sown.
(§3) The soil used in the tests is a prepared horticultural loam. The formulations used in the tests are prepared from solutions of the test compounds in acetone containing 0.4% by weight of an alkylphenol/ethylene oxide condensate available under the trade mark TRITON X-155. […] In these tests untreated sown soil are used as controls.
(§4) The herbicidal effects of the test compounds are assessed visually twenty-one days after spraying the foliage and the soil and are recorded on a 0-9 scale. A rating 0 indicates growth as untreated control, a rating 9 indicates death. An increase of 1 unit on the linear scale approximates to a 10% increase in the level of effect.

[2] = test system: Hordeum vulgare; assay: Pre-emergence herbicidal test, HORVW; parameters: key: A rating 0 indicates growth as untreated control; a rating 9 indicates death; conditions: 21 days after spraying
Description: as §1, §2, §3, §4

[3] = test system: Zea mays; assay: Pre-emergence herbicidal test, ZEAMX; conditions: PRE, 21 days after spraying
Description: as §1, §2, §3, §4

[4] = test system: Glycine max; assay: Pre-emergence herbicidal test, GLXMA; parameters: key to herbicidal effect (0-9 scale) GLXMA / herbicidal rating GLXMA: A rating 0 indicates growth as untreated control; a rating 9 indicates death; conditions: PRE, 21 days after spraying
Description: as §1, §2, §3, §4

[5] = test system: Setaria viridis; assay: Pre-emergence herbicidal test, SETVI; conditions: PRE, 21 days after spraying
Description: as §1, §2, §3, §4

[6] = test system: Echinochloa crus-galli; assay: Pre-emergence herbicidal test, ECHCG; conditions: 21 days after spraying
Description: as §1, §2, §3, §4

[7] = test system: Alopecurus myosuroides; assay: Pre-emergence herbicidal test, ALOMY; conditions: PRE, 21 days after spraying
Description: as §1, §2, §3, §4

[8] = test system: Ipomoea hederacea; assay: Pre-emergence herbicidal test, IPOHE; conditions: 21 days after spraying
Description: as §1, §2, §3, §4

[9] = test system: Galium aparine; assay: Pre-emergence herbicidal test, GALAP; parameters: key to herbicidal effect (0-9 scale) GALAP / herbicidal rating GALAP: A rating 0 indicates growth as untreated control; a rating 9 indicates death; conditions: PRE, 21 days after spraying
Description: as §1, §2, §3, §4

[10] = test system: Abutilon theophrasti; assay: Pre-emergence herbicidal test, ABUTH; conditions: PRE, 21 days after spraying
Description: as §1, §2, §3, §4

[11] = test system: Stellaria media; assay: Pre-emergence herbicidal test, STEME; conditions: PRE, 21 days after spraying
Description: as §1, §2, §3, §4

[12] = test system: Matricaria inodora; assay: Pre-emergence herbicidal test, MATIN; conditions: PRE, 21 days after spraying
Description: as §1, §2, §3, §4

[13] = test system: Triticum aestivum; assay: Post-emergence herbicidal test, TRZAW; conditions: POST, 21 days after spraying
Description: as §1
(§5) […] After spraying, the plants are placed on greenhouse benches and are cared for in the usual manner, commensurate with conventional greenhouse practices.
as §4

[14] = test system: Hordeum vulgare; assay: Post-emergence herbicidal test, HORVW; conditions: 21 days after spraying
Description: as §1
These acetone solutions are diluted with water and the resulting formulations applied at dosage levels equivalent to about 1000, 800, 400, 250 or 100 g/ha per hectare of test compound per pot. After spraying, the plants are placed on greenhouse benches and are cared for in the usual manner, commensurate with conventional greenhouse practices.
as §4

[15] = test system: Zea mays; assay: Post-emergence herbicidal test, ZEAMX; conditions: 21 days after spraying
Description: as §1, §5, §4

[16] = test system: Glycine max; assay: Post-emergence herbicidal test, GLXMA; conditions: 21 days after spraying
Description: as §1, §5, §4

[17] = test system: Setaria viridis; assay: Post-emergence herbicidal test, SETVI; parameters: key to herbicidal effect (0-9 scale) SETVI / herbicidal rating SETVI: A rating 0 indicates growth as untreated control; a rating 9 indicates death; conditions: POST, 21 days after spraying
Description: as §1, §5, §4

[18] = test system: Echinochloa crus-galli; assay: Post-emergence herbicidal test, ECHCG; conditions: 21 days after spraying
Description: as §1, §5, §4

[19] = test system: Alopecurus myosuroides; assay: Post-emergence herbicidal test, ALOMY; conditions: 21 days after spraying
Description: as §1, §5, §4

[20] = test system: Ipomoea hederacea; assay: Post-emergence herbicidal test, IPOHE; parameters: key to herbicidal effect (0-9 scale) IPOHE / herbicidal rating IPOHE: A rating 0 indicates growth as untreated control; a rating 9 indicates death; conditions: POST, 21 days after spraying
Description: as §1, §5, §4

[21] = test system: Galium aparine; assay: Post-emergence herbicidal test, GALAP; conditions: POST, 21 days after spraying
Description: as §1, §5, §4

[22] = test system: Abutilon theophrasti; assay: Post-emergence herbicidal test, ABUTH; parameters: key to herbicidal effect (0-9 scale) ABUTH / herbicidal rating ABUTH: A rating 0 indicates growth as untreated control; a rating 9 indicates death; conditions: POST, 21 days after spraying
Description: as §1, §5, §4

[23] = test system: Stellaria media; assay: Post-emergence herbicidal test, STEME; conditions: POST, 21 days after spraying
Description: as §1, §5, §4

[24] = test system: Matricaria inodora; assay: Post-emergence herbicidal test, MATIN; conditions: POST, 21 days after spraying
Description: as §1, §5, §4

Cn1c(C(F)(F)F)cc(=O)n(-n2ccc3ccc(Br)cc32)c1=O [Example 6]
herbicidal effect (0-9 scale) TRZAW ([1]; 100 g/ha): 0
herbicidal effect (0-9 scale) TRZAW ([1]; 400 g/ha): 0
herbicidal effect (0-9 scale) HORVW ([2]; 100 g/ha): 0
herbicidal effect (0-9 scale) HORVW ([2]; 400 g/ha): 1
herbicidal effect (0-9 scale) ZEAMX ([3]; 100 g/ha): 2
herbicidal effect (0-9 scale) ZEAMX ([3]; 400 g/ha): 4
herbicidal effect (0-9 scale) GLXMA ([4]; 100 g/ha): 0
herbicidal effect (0-9 scale) GLXMA ([4]; 400 g/ha): 0
herbicidal effect (0-9 scale) SETVI ([5]; 100 g/ha): 5
herbicidal effect (0-9 scale) SETVI ([5]; 400 g/ha): 8
herbicidal effect (0-9 scale) ECHCG ([6]; 100 g/ha): 1
herbicidal effect (0-9 scale) ECHCG ([6]; 400 g/ha): 5
herbicidal effect (0-9 scale) ALOMY ([7]; 100 g/ha): 1
herbicidal effect (0-9 scale) ALOMY ([7]; 400 g/ha): 3
herbicidal effect (0-9 scale) IPOHE ([8]; 100 g/ha): 1
herbicidal effect (0-9 scale) IPOHE ([8]; 400 g/ha): 2
herbicidal effect (0-9 scale) GALAP ([9]; 100 g/ha): 2
herbicidal effect (0-9 scale) GALAP ([9]; 400 g/ha): 9
herbicidal effect (0-9 scale) ABUTH ([10]; 100 g/ha): 6
herbicidal effect (0-9 scale) ABUTH ([10]; 400 g/ha): 8
herbicidal effect (0-9 scale) STEME ([11]; 100 g/ha): 1
herbicidal effect (0-9 scale) STEME ([11]; 400 g/ha): 4
herbicidal effect (0-9 scale) MATIN ([12]; 100 g/ha): 1
herbicidal effect (0-9 scale) MATIN ([12]; 400 g/ha): 5
herbicidal effect (0-9 scale) TRZAW ([13]; 100 g/ha): 2
herbicidal effect (0-9 scale) TRZAW ([13]; 400 g/ha): 3
herbicidal effect (0-9 scale) HORVW ([14]; 100 g/ha): 3
herbicidal effect (0-9 scale) HORVW ([14]; 400 g/ha): 3
herbicidal effect (0-9 scale) ZEAMX ([15]; 100 g/ha): 2
herbicidal effect (0-9 scale) ZEAMX ([15]; 400 g/ha): 3
herbicidal effect (0-9 scale) GLXMA ([16]; 100 g/ha): 4
herbicidal effect (0-9 scale) GLXMA ([16]; 400 g/ha): 8
herbicidal effect (0-9 scale) SETVI ([17]; 100 g/ha): 7
herbicidal effect (0-9 scale) SETVI ([17]; 400 g/ha): 9
herbicidal effect (0-9 scale) ECHCG ([18]; 100 g/ha): 4
herbicidal effect (0-9 scale) ECHCG ([18]; 400 g/ha): 8
herbicidal effect (0-9 scale) ALOMY ([19]; 100 g/ha): 2
herbicidal effect (0-9 scale) ALOMY ([19]; 400 g/ha): 4
herbicidal effect (0-9 scale) IPOHE ([20]; 100 g/ha): 8
herbicidal effect (0-9 scale) IPOHE ([20]; 400 g/ha): 9
herbicidal effect (0-9 scale) GALAP ([21]; 100 g/ha): 5
herbicidal effect (0-9 scale) GALAP ([21]; 400 g/ha): 8
herbicidal effect (0-9 scale) ABUTH ([22]; 100 g/ha): 9
herbicidal effect (0-9 scale) ABUTH ([22]; 400 g/ha): 9
herbicidal effect (0-9 scale) STEME ([23]; 100 g/ha): 5
herbicidal effect (0-9 scale) STEME ([23]; 400 g/ha): 8
herbicidal effect (0-9 scale) MATIN ([24]; 100 g/ha): 3
herbicidal effect (0-9 scale) MATIN ([24]; 400 g/ha): 5
